≈ marks a conversion by molar mass, not a printed value.

The record followed here is patent publication US7405228B2, “Antibacterial cyano-(substituted)-methylenepiperidinophenyl oxazolidinones targeting multiple ribonucleoprotein sites” (Wockhardt Limited, priority 2002, dated 2008).

Series [1] has as its system MRSA 032. Kind of series: MIC determination, linezolid sensitive MRSA 032 (MRSA-32). It counts as cell-based. As to conditions: Staphylococcus aureus, read-out: MIC MRSA 32. As for the experimental part: (§1) Infecting doses of organisms given by intraperitoneal route in 5% hog gastric mucin were 10^3-10^4 CFU (colony forming units)/animal for SPN 6303 and 10^8 CFU/animal for MRSA-32. In case of MRSA-32, Linezolid was administered by oral route, 1 and 4 h post infection, BID (twice a day) for 1 day and for SPN 6303 BID for 2 days. […] MICs of Methicillin Resistant Staphylococcus aureus-32 Linezolid resistant (MRSA-32 LNZR), S. pneumoniae 744 Linezolid resistant (SPN 744 LNZR) and parent Linezolid sensitive strains MRSA-32 and SPN 6303 were determined for Linezolid by NCCLS agar dilution method.
(§2) Cultures were further diluted 1:10 in Mueller Hinton broth. Using Denley's mutipoint inoculator, 10^4 cells were deposited on Mueller Hinton agar (Difco) containing range of 2 fold dilutions of test compounds. […] MIC is defined as minimum drug concentration that inhibits test organisms. For determining MIC of test compounds against Streptococcus pneumoniae, Mueller Hinton agar containing 5% sheep blood was employed.

The test system of series [2] is SPN 49619. The series can be described thus: MIC determination, linezolid sensitive SPN 49619. It counts as cell-based. As to conditions: Streptococcus pneumoniae; linezolid sensitive strain, Table 3.
Series [3] deals with S. aureus MRSA-32 LNZR. Kind of series: MIC determination, linezolid resistant S. aureus MRSA-32 LNZR. It is filed as cell-based. As to conditions: Staphylococcus aureus, 24 h, read-out: MIC MRSA 32 LNZR. As for the experimental part:
as §1, §2

Series [4] concerns SPN 744 LNZR. The series can be described thus: MIC determination, linezolid resistant SPN 744 LNZR. It counts as cell-based. As to conditions: Streptococcus pneumoniae, read-out: MIC SPN744 LNZR. As for the experimental part:
as §1, §2

The subject of series [5] is E. faecium 367 LNZR. Kind of series: MIC determination, linezolid resistant E. faecium 367 LNZR. It counts as cell-based. As to conditions: Enterococcus faecium, read-out: MIC E. faecium 367 LNZR. As for the experimental part:
E. faecium ATCC 19434 strain at a cell density of 10^6/ml was inoculated in Mueller Hinton broth medium containing Linezolid at a concentration of 5 and 7.5 mcg/ml. The stationary culture was incubated at 37° C. and inspected at every 24 hours to assess the formation of turbidity due to the onset of bacterial growth. […] A 50 microliter sample of turbid flask was plated on Mueller Hinton agar medium incorporated with linezolid at 7.5 mcg/ml. The agar plates were incubated for 48 hours at 37° C. for the formation of discrete colonies of linezolid-resistant strain of E. faecium (E. faecium 367 LNZR). MICs of resistant mutant E. faecium 367 LNZR and parent strain E. faecium ATCC 19434 were determined for linezolid by NCCLS method.
as §2

As for `CC(=O)NC[C@H]1CN(c2ccc(N3CCC(=C(C#N)c4cccs4)CC3)c(F)c2)C(=O)O1` [Example 105, (S)-N-{3-[4-(4-(1-cyano-1-(thiophen-2-yl)-methylidene)-piperidin-1-yl)-3-fluorophenyl]-2-oxo-oxazolidin-5-ylmethyl}-acetamide], the MIC in series [1] and in series [2] was 0.8 µg/mL (≈ 1.76 µM) each time.

Take `CC(=S)NC[C@H]1CN(c2ccc(N3CCC(=C(C#N)C#N)CC3)c(F)c2)C(=O)O1` [Example 119, (S)-N-{3-[4-(4-(1,1-dicyano-methylidene)-piperidin-1-yl)-3-fluorophenyl]-2-oxo-oxazolidin-5-ylmethyl}-thioacetamide]: the MIC came out at 0.4 µg/mL (≈ 0.967 µM) in series [1] and 0.8 µg/mL (≈ 1.93 µM) in series [2].

As to `CC(C#N)=C1CCN(c2ccc(N3C[C@H](CNC(=O)C(Cl)Cl)OC3=O)cc2F)CC1` [Example 79, (S)-N-{3-[4-(4-(1-cyanoethylidene)-piperidin-1-yl)-3-fluorophenyl]-2-oxo-oxazolidin-5-ylmethyl}-dichloroacetamide], the MIC in series [1] and in series [2] was 0.8 µg/mL (≈ 1.76 µM) in each case.

Turning to `CC(=S)NC[C@H]1CN(c2ccc(N3CCC(=CC#N)CC3)c(F)c2)C(=O)O1` [Example 45, (S)-N-{3-[4-(4-cyanomethylidene-piperidin-1-yl)-3-fluorophenyl]-2-oxo-oxazolidin-5-ylmethyl}-thioacetamide], the MIC stood at 0.2 µg/mL (≈ 0.515 µM) in series [1], 3.12 µg/mL (≈ 8.03 µM) in series [3], 3.12 µg/mL (≈ 8.03 µM) in series [4] and 0.2 µg/mL (≈ 0.515 µM) in series [2].

For the molecule `CC(C#N)=C1CCN(c2ccc(N3C[C@H](CNC(=O)C(F)F)OC3=O)cc2F)CC1` [Example 77, (S)-N-{3-[4-(4-(1-cyanoethylidene)-piperidin-1-yl)-3-fluorophenyl]-2-oxo-oxazolidin-5-ylmethyl}-difluoroacetamide], the MIC stood at 12.5 µg/mL (≈ 29.6 µM) in series [3], 6.25 µg/mL (≈ 14.8 µM) in series [4] and 6.25 µg/mL (≈ 14.8 µM) in series [5].

On to `CC(=S)NC[C@H]1CN(c2ccc(N3CCC(=C(C#N)c4ccccn4)CC3)c(F)c2)C(=O)O1` [Example 118, (S)-N-{3-[4-(4-(1-cyano-1-(pyridin-2-yl)-methylidene)-piperidin-1-yl)-3-fluorophen]-2-oxo-oxazolidin-5-ylmethyl}-thioacetamide], for which the MIC in series [1] turned out to be 0.8 µg/mL (≈ 1.72 µM); in series [2] it was 0.4 µg/mL (≈ 0.859 µM).

`CC(=S)NC[C@H]1CN(c2ccc(N3CCC(=C(C#N)C(=S)N4CCOCC4)CC3)c(F)c2)C(=O)O1` [Example 121, (S)-N-{3-[4-(4-(1-cyano-1-(morpholin-1-yl-thiocarbonyl)-methylidene)-piperidin-1-yl)-3-fluorophenyl]-2-oxo-oxazolidin-5-ylmethyl}-thioacetamide]: the minimum inhibitory concentration (MIC) in series [1] turned out to be 0.4 µg/mL (≈ 0.773 µM); in series [3], 6.25 µg/mL (≈ 12.1 µM); in series [4], 1.56 µg/mL (≈ 3.01 µM); in series [2] it was 0.2 µg/mL (≈ 0.386 µM).

As to `CS(=O)(=O)OC[C@H]1CN(c2ccc(N3CCC(C(C#N)C(=O)O)CC3)c(F)c2)C(=O)O1` (stereo partly drawn) [Example 155, (R)-{3-[4-(4-(1-Cyano-1-hydroxycarbonyl)-methylpiperidin-1-yl)-3-fluorophenyl]-2-oxo-oxazolidin-5-ylmethyl}-methanesulphonate], the melting point lay in the range of 108 to 110 °C.

Molecule `CC1CN(c2ccc(N3C[C@H](CNc4nccs4)OC3=O)cc2F)CC/C1=C\C#N` (stereo partly drawn) [Example 66, (S)-2-{3-[4-(4-cyanomethylidene-3-methylpiperidin-1-yl)-3-fluorophenyl]-2-oxo-oxazolidin-5-ylmethylamino}-1,3-thiazole] yielded a melting point of 75 to 77 °C.

In the case of `N#CCC1CCN(c2ccc(N3C[C@H](CO)OC3=O)cc2)CC1` [Example 124, (R)-{3-[4-(4-cyanomethyl-piperidin-1-yl)-phenyl]-2-oxo-oxazolidin-5-ylmethyl}-alcohol], the melting point was 110 to 112 °C.

As for `CCOC(=O)c1cnnn1C[C@H]1CN(c2ccc(N3CCC(C(C#N)CO)CC3)c(F)c2)C(=O)O1` (stereo partly drawn) [Example 152, (S)-1-{3-[4-(4-(1-cyano-2-hydroxy)-ethylpiperidin-1-yl)-3-fluorophenyl]-2-oxo-oxazolidin-5-ylmethyl}-5-ethoxycarbonyl-1,2,3-triazole], the melting point is 76 to 78 °C.

For the molecule `N#CC=C1CCN(c2ccc(N3C[C@H](CNC(=S)NCCO)OC3=O)cc2F)CC1` [Example 48, (S)-N-{3-[4-(4-cyanomethylidene-piperidin-1-yl)-3-fluorophenyl]-2-oxo-oxazolidin-5-ylmethyl}-2-hydroxyethylthiocarbamide], the melting point fell in the range of 168 to 170 °C.

Regarding `CS(=O)(=O)OC[C@H]1CN(c2ccc(N3CCC(C(C#N)C(N)=O)CC3)c(F)c2)C(=O)O1` (stereo partly drawn) [Example 158, (R)-{3-[4-(4-(1-cyano-1-carboxamido)-methylpiperidin-1-yl)-3-fluorophenyl]-2-oxo-oxazolidin-5-ylmethyl}-methanesulphonate], the melting point was in the range of 220 to 222 °C.

Molecule `N#CC=C1CCN(c2ccc(N3C[C@H](CNC(=O)CI)OC3=O)cc2F)CC1` [Example 36, (S)-N-{3-[4-(4-cyanomethylidene-piperidin-1-yl)-3-fluorophenyl]-2-oxo-oxazolidin-5-ylmethyl}-iodoacetamide] came in with a melting point of 178 to 180 °C.

On to `CCOC(=O)c1cn(CC2CN(c3ccc(N4CCC(CC#N)CC4)cc3)C(=O)O2)nn1` (stereo in doubt) [Example 123, (S)-1-{3-[4-(4-cyanomethyl-piperidin-1-yl)-phenyl]-2-oxo-oxazolidin-5-ylmethyl}-4-carboethoxy-1,2,3-triazole], for which the melting point lay within 198 to 200 °C.

`CCC(C#N)=C1CCN(c2ccc(N3C[C@H](CNC(=O)C(Cl)(Cl)Cl)OC3=O)cc2F)CC1` [Example 91, (S)-N-{3-[4-(4-(1-cyanopropylidene)-piperidin-1-yl)-3-fluorophenyl]-2-oxo-oxazolidin-5-ylmethyl}-trichloroacetamide]: the melting point lay in the range of 150 to 152 °C.

In the case of `CC(C)COC(=O)NC[C@H]1CN(c2ccc(N3CC=C(CC#N)C(F)C3)c(F)c2)C(=O)O1` (stereo partly drawn) [Example 163, (S)-N-{3-[4-(4-cyanomethyl-3-fluoro-4,5-dehydropiperidin-1-yl)-3-fluorophenyl]-2-oxo-oxazolidin-5-ylmethyl}-isobutylcarbamate], the melting point fell in the range of 146 to 148 °C.

Consider `CC(=O)NC[C@H]1CN(c2ccc(N3CCC(C(C#N)n4ccnc4)CC3)c(F)c2)C(=O)O1` (stereo partly drawn) [Example 136, (S)-N-{3-[4-(4-(1-cyano-1-(imidazol-1-yl))-methylpiperidin-1-yl)-3-fluorophenyl]-2-oxo-oxazolidin-5-ylmethyl}-acetamide], for which the melting point lay within 210 to 212 °C.

Molecule `CC(=O)NC[C@H]1CN(c2ccc(N3CC/C(=C/C#N)C(C)(C)C3)c(F)c2)C(=O)O1` [Example 70, (S)-N-{3-[4-(4-cyanomethylidene-3,3-dimethylpiperidin-1-yl)-3-fluorophenyl]-2-oxo-oxazolidin-5-ylmethyl}-acetamide] yielded a melting point of 150 to 152 °C.

On to `CCC(C#N)=C1CCN(c2ccc(N3C[C@H](CNC(=O)CBr)OC3=O)cc2F)CC1` [Example 92, (S)-N-{3-[4-(4-(1-cyanopropylidene)-piperidin-1-yl)-3-fluorophenyl]-2-oxo-oxazolidin-5-ylmethyl}-bromoacetamide], for which the melting point lay in the range of 200 to 203 °C.

Consider `N#CC=C1CCN(c2ccc(N3CC(CN=[N+]=[N-])OC3=O)cc2F)CC1` (stereo in doubt) [Example 16, (S)-{3-[4-(4-cyanomethylidene-piperidin-1-yl)-3-fluorophenyl]-2-oxo-oxazolidin-5-ylmethyl}-azide], for which the melting point fell in the range of 112 to 114 °C.

For `CC(C)(C)CC(=O)NC[C@H]1CN(c2ccc(N3CCC(=CC#N)CC3)c(F)c2)C(=O)O1` [Example 12, (S)-N-{3-[4-(4-cyanomethylidene-piperidin-1-yl)-3-fluorophenyl]-2-oxo-oxazolidin-5-ylmethyl}-3,3-dimethylbutanamide], the melting point is 210 to 212 °C.

`CC1CN(c2ccc(N3C[C@H](CNC(=O)CC#N)OC3=O)cc2F)CC/C1=C\C#N` (stereo partly drawn) [Example 65, (S)-N-{3-[4-(4-cyanomethylidene-3-methylpiperidin-1-yl)-3-fluorophenyl]-2-oxo-oxazolidin-5-ylmethyl}-2-cyanoacetamide] registered a melting point of 102 to 104 °C.

`N#CC=C1CCN(c2ccc(N3C[C@H](CNC(=O)C4CCCN4)OC3=O)cc2F)CC1` (stereo in doubt) [Example 25, (S)-N-{3-[4-(4-cyanomethylidene-piperidin-1-yl)-3-fluorophenyl]-2-oxo-oxazolidin-5-ylmethyl}-pyrrolidin-2-carboxamide] returned a melting point of 155 °C.
